Measurements from patent US9023848B2 (Bionomics Limited, priority 2012, dated 2015).
≈ marks a conversion by molar mass, not a printed value.

Columns and labels:
[1] = tested on: cortical neurons; assay: Neurite outgrowth assay; assay type: cell-based; settings: rat cortical neurons, 3 days exposure, tested at 1 nM, 10 nM and 100 nM
Experimental: Female rats of 17 days gestation were killed by cervical dislocation and the foetuses were removed from the uterus. Their brains were placed in ice-cold medium of Leibovitz (L15, Gibco, Fisher bioblock, France). Cortex were dissected and meninges were carefully removed. The cortical neurons were dissociated by trypsinization for 30 min at 37° C. (trypsin-EDTA Gibco) in presence of 0.1 mg/ml DNAse I (Roche, France). The reaction was stopped by addition of Dulbecco's Modified Eagle Medium (DMEM; Gibco) with 10% of fetal bovine serum (FBS; Gibco). The suspension was triturated with a 10-ml pipette and using a 21G needle and syringe, and centrifuged at 350×g for 10 min at room temperature. The pellet of dissociated cells was resuspended in medium consisting of Neurobasal (Gibco) supplemented with 2% B27 supplement (Gibco), 0.5 mM L-Glutamine (Gibco), an antibiotic-antimicotic mixture. Viable cells were counted in a Neubauer cytometer using the trypan blue exclusion test (Sigma). Cells were seeded on the basis of 30000 cells per Petri dish (ø35 mm, Nunc) precoated with poly-L-lysine. […]
A global analysis of the data was performed using a one way analysis of variance (ANOVA), followed by Fisher's Protected Least Significant Difference when applicable. […] All results were expressed as mean±sem. […]

[2] = tested on: mice; assay: Modified Open Field (Dark), sedative or stimulating effect; assay type: in vivo; settings: tested at 5-100 mg/kg, per os 1 hour before the test
Description: The open field (dark) is used to measure the spontaneous motor activity of mice in a quiet, dark environment. This system is useful for discriminating the sedating or stimulating properties of test compounds on spontaneous locomotion and can thus provide a preliminary indication of potentially adverse effects such as sedation.
The apparatus is an open plexiglass cage (52×52 cm) with 40 cm walls. The animal's movements are tracked by a computerised video tracking system, consisting of an overhead camera, diode sensors placed underneath the floor of the cage, computer and video analyser software (ViewPoint, France). The video camera is placed at 2.50 m above the cage and connected to the computer via a video capture card (Pinnacle Systems, France). The video tracking system is set in a way that the floor of the OF is divided into nine equal squares. The total number of crossed squares and the total walked distance are recorded.
Each animal is singly placed in a corner of the apparatus and its locomotor activity is automatically recorded over a period of 20 minutes.
The apparatus is cleaned between each animal with alcohol (70%).
(§1) Test compound was prepared in aqueous vehicle containing 0.5% w/v hydroxypropylmethyl cellulose, 0.5% v/v benzyl alcohol and 0.4% v/v Tween 80. It was administrated per os 1 hour before the implementation of the test.

[3] = tested on: mice; assay: Marble Burying; assay type: in vivo; settings: per os 1 hour before the test
Description: The Marble Burying test is used as a model for both anxiety and obsessive compulsive disorders. Mice have a natural tendency to bury marbles under the bedding when placed in a cage with rows of evenly spaced marbles on the floor. Suppression of this spontaneous burying has been used as a measure of anxiolytic drug action. Mice pre-treated with benzodiazepines and different classes of antidepressants bury less marbles when compared to the control mice
The apparatus consists of transparent polycarbonate cages (30 cm×18 cm×19 cm) containing a 5 cm layer of fine sawdust bedding and 20 glass marbles (diameter: 1.5 cm) spaced evenly along the walls of the cage. Each animal is placed individually in the cage where it remains for a 20 min test session. On termination of the test session the animals are removed from the cage and the number of marbles at least two-thirds buried in the sawdust is recorded.
as §1

[4] = Kinetic solubility; assay type: physicochemical; settings: kinetic from dmso stock
[5] = tested on: rat; assay: Elevated Plus Maze; assay type: in vivo; settings: per os 1 hour before the test
Description: The Elevated Plus Maze (EPM) situation rests on the conflict between the innate tendencies of rodents to explore novel environments and avoid open and brightly lit areas. In this task the mouse is placed in the centre of the maze. From here it can walk down any of four runways. Two of the arms are well lit and open, and the other two are enclosed and dimly lit. Mice prefer the closed arms but will venture out into the open arms. The amount of time spent in the open arms and the number of times the mice enter the open arms are recorded. The total walked distance in the open arms is also recorded. “Anxious” mice will spend little time in the open arms and make very few entries into the open arms.
The apparatus is made of polyvinylchloride materials and consists of four equal exploratory arms (45×10 cm) which are all interconnected by a small platform (10×10 cm). Two arms are open and two others are closed with walls (30 cm high). The apparatus is placed 66 cm above the floor. A videotracking system is used to record the test (ViewPoint, France). […]
A trial consists of placing an animal on the central platform facing a closed arm. The number of entries and the duration spent in open arms are automatically recorded by a videotrack system during an 5 minutes period. […]

[6] = tested on: mice; assay: Forced Swim Test (antidepressant properties); assay type: in vivo; settings: per os 1 hour before the test
Description: The forced swim test is the most widely used paradigm for the evaluation of potential antidepressant effect of drugs. Animals placed in a container filled with water show periods of increased swimming activity and periods of relative immobility. Immobile posture reflects a state of tiredness, fatigue, reduced stamina or a lowered mood (hopelessness) similar to the core symptoms observed in depressed patients and in individuals under intense stress. […] The test has some predictive value for anti-depressant drugs. The apparatus consists of a glass cylinder (height 35 cm; diameter 24 cm) filled with water (depth: 25 cm, temperature: 25±1° C.).
as §1

[7] = logD7.4; assay type: physicochemical; settings: pH 7.4
[8] = tested on: mice; assay: Light Dark Box test (anxiolytic effect); assay type: in vivo; settings: per os 1 hour before the test
Description: The light dark paradigm is based on a conflict between the innate aversion of rodents to brightly illuminated areas and on the spontaneous exploratory behaviour of the mice. If given a choice between a large brightly compartment versus a small dark compartment they spontaneously prefer the dark part.
The apparatus consists of two PVC (polyvinylchloride) boxes (19×19×15 cm) covered with Plexiglas. One of these boxes is darkened. The other box is illuminated by 100 W desk lamp placed 15 cm above and providing an illumination of about 4400 Lux. An opaque plastic tunnel (5×7×10 cm) separates the dark box from the illuminated one.
Animals were placed individually in the lit box, with head directed towards the tunnel. The time spent in the lit box and the number of transitions between the two boxes was recorded over a 5 min period after the first entry of the animal in the dark box. The total walked distance in the lit box was also recorded. Animals scored without entry into the […] were excluded from the analysis.
as §1

Row | solubility kinetic ([4]; pH 2, simulated gastric fluid) [µg/mL] | solubility kinetic ([4]; pH 6.5, aqueous buffer) [µg/mL] | logD [7] | Compound | Neurite outgrowth: significant effect at concentrations [1] | Open Field (Dark) sedation [2] | Marble Burying MED (Minimum Effective Dose) [3] | Elevated Plus Maze MED (Minimum Effective Dose) [5] | Forced Swim Test MED (Minimum Effective Dose) [6] | Light Dark Box MED (Minimum Effective Dose) [8]
1 | 25 to 50 (≈ 63.4 to 127 µM) | 50 to 100 (≈ 127 to 254 µM) | 2 | Cc1nc2ccc(NC3Cc4ccccc4C3)cc2c(-c2ccccc2)c1C(=O)O [Example 1, 6-(2,3-dihydro-1H-inden-2-ylamino)-2-methyl-4-phenylquinoline-3-carboxylic acid] | ≦100 nM | No Sedation | MED 0.1 mg/kg | MED 0.1 mg/kg | MED 10 mg/kg | MED 0.1 mg/kg
2 | – | – | – | Cc1nc2ccc(NC3Cc4ccccc4C3)cc2c(-c2ccccc2)c1C(=O)N1CCOCC1 [Example 2] | – | – | – | – | – | MED 10 mg/kg
